Source: patent publication US20260201008A1, “SECRETIN-DERIVED GLP1R SELECTIVE AGONISTS” (GUBRA A/S, priority 2023, published 2026)
Read-outs that look alike come from different tables or passages of the source. Numbered stars: 1 amine (or outer) side, 2 acyl side, 3 side chain; on linkers, the order of the positions; unused ones are H or OH. Square brackets hold non-standard residues; d marks the D form. Side chains are listed from the residue outwards. Peptide text beside a SMILES is read from it. * marks the point of attachment. C18 diacid = O=C(O)CCCCCCCCCCCCCCCCC(=O)*; γGlu = O=C(O)[C@H](CCC(=O)[*:2])N[*:1]; AEEA = NCCOCCOCC(=O)O; Aib = CC(C)(N)C(=O)O

Tests used:
GLP1R = GLP1R (Homo sapiens, UniProt P43220); assay: hGLP1R potency, cAMP accumulation in CHO-K1 cells stably overexpressing hGLP1R; type: cell-based; parameters: host or cells: CHO-K1; conditions: for Selectivity: SCTR EC50/GLP1R EC50 ratio
Chain of GLP1R (P43220 24-463): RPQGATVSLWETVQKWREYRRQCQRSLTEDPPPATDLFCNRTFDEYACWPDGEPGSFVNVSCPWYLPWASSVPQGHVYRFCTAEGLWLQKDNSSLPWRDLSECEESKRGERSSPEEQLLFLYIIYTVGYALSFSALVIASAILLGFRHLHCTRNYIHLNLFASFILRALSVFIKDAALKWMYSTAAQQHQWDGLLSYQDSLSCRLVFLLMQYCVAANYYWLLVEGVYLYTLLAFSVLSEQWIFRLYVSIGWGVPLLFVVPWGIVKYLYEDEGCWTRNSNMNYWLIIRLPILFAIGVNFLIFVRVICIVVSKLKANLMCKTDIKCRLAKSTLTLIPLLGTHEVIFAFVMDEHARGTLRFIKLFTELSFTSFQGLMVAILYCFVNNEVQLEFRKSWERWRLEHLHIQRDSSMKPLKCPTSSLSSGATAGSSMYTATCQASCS
Excerpt: (§1) Crude library peptides are screened in 10-fold serial dilutions of 5 concentrations, n=1 time. Tip change is done for the first two serial dilutions. Compound starting concentration (top) will be adjusted throughout the study if needed.
(§2) Purified peptides are screened in 3-fold serial dilutions of 11 concentrations, n=2 times. Tip change is done for all serial dilutions. Compound starting concentration (top) will be adjusted throughout the study. If the top concentration is adjusted or a 5-fold difference in calculated EC50 values is observed, n is increased by 1. EC50 values were calculated by nonlinear regression using sigmoid concentration-response with variable slope.
(§3) A CHO-K1 cell line stably overexpressing the hGLP1R was obtained from Euroscreen (FAST-0145L), expanded, aliquoted and frozen. An aliquot was thawed and plated in DPBS with 0.05% casein and 0.5 mM IBMX as 2000 cells/well in a 384-well format. The cells were then immediately stimulated for 30 min at room temperature with graded doses of test compound using human GLP-1(7-36) (synthesized at Gubra) as a positive control. cAMP accumulation was measured using a Cisbio assay for Gs coupled receptors (cat. no. 62AM4PEC), where the assay reagents were added as per the manufacturer's instructions and time-resolved fluorescence energy transfer recorded after one hour on a CLARIOstar (BMG Labtech) plate reader.

SCTR = SCTR (Homo sapiens, UniProt P47872); assay: hSCTR potency, cAMP accumulation in CHO-K1 cells stably overexpressing hSCTR; type: cell-based; parameters: alternatively Euroscreen ES-712-AF; FAST-0161L; host or cells: CHO-K1; conditions: read-out: pEC50 hSCTR (converted)
Chain of SCTR (P47872 23-440): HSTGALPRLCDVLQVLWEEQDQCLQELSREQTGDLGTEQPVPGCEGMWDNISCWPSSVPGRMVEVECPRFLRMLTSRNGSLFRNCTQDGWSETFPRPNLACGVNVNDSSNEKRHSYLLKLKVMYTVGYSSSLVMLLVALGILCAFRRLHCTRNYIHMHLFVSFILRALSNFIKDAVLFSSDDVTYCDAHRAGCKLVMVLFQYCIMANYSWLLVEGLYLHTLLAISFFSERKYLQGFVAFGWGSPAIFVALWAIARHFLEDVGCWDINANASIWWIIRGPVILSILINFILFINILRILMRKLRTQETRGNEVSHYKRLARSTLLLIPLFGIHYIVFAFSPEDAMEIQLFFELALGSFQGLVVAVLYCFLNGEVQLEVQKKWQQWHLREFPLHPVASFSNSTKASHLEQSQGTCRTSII
Excerpt: as §1, §2
as §3, with “Frozen division arrested CHO-K1 cells stably overexpressing the hSCTR were obtained from PerkinElmer (ES-712-AF). Alternatively, a CHO-K1” for “A CHO-K1”, “the hSCTR” for “the hGLP1R”, “Euroscreen (FAST-0161L),” for “Euroscreen (FAST-0145L),”, “human secretin” for “human GLP-1(7-36)”

[1] = Table 2, extended 30 amino acid peptides
[2] = Table 2, extended 30 amino acid peptides, read-out: PEC50 hGLPR1 (converted)
[3] = Table 4, position X12 variants of GUB06-046
[4] = Table 4, position X12 variants of GUB06-046, read-out: pEC50 hGLPR1 (converted)
[5] = Table 3, position X^10 variants of GUB06-046

Row | Compound | Selectivity (GLP1R; [1]) | EC50 (GLP1R; [2]) | EC50 (SCTR; [1]) | Selectivity (GLP1R; [3]) | EC50 (GLP1R; [4]) | EC50 (SCTR; [3]) | Selectivity (GLP1R; [5]) | EC50 (GLP1R; Table 3, position X^10 variants of GUB06-046, read-out: pEC50 hGLPR1 (converted)) | EC50 (SCTR; [5])
1 | CC(C)C[C@H](NC(=O)[C@H](Cc1ccccc1)NC(=O)[C@H](CCCNC(=N)N)NC(=O)[C@H](CCC(N)=O)NC(=O)[C@H](CCC(=O)O)NC(=O)[C@H](C)NC(=O)[C@H](C)NC(=O)CNC(=O)[C@H](CCC(=O)O)NC(=O)[C@H](CCCCNC(=O)COCCOCCNC(=O)COCCOCCNC(=O)CC[C@H](NC(=O)CCCCCCCCCCCCCCCCC(=O)O)C(=O)O)NC(=O)[C@H](CC(C)C)NC(=O)[C@H](CCCNC(=N)N)NC(=O)[C@H](CO)NC(=O)[C@@H](NC(=O)[C@H](CC(=O)O)NC(=O)[C@H](CO)NC(=O)[C@@H](NC(=O)[C@H](Cc1ccccc1)NC(=O)[C@@H](NC(=O)CNC(=O)[C@H](CCC(=O)O)NC(=O)C(C)(C)NC(=O)[C@@H](N)Cc1c[nH]cn1)[C@@H](C)O)[C@@H](C)O)C(C)C)C(=O)N[C@@H](CCC(N)=O)C(=O)N[C@@H](Cc1c[nH]cn1)C(=O)N[C@@H](CC(C)C)C(=O)N[C@H](C(=O)N[C@@H](CCC(=O)O)C(=O)N[C@@H](C)C(=O)N[C@@H](CCC(=O)O)C(N)=O)C(C)C [compound 204] (H-H[Aib]EGTFTSDVSRLK([AEEA-AEEA-γGlu-C18 diacid])EGAAEQRFLQHLVEAE-NH2) | 285714 | 0.01 nM | 2510 nM |  |  |  |  |  | 
2 | CC[C@H](C)[C@H](NC(=O)[C@H](Cc1ccccc1)NC(=O)[C@H](CCCNC(=N)N)NC(=O)[C@H](CCC(N)=O)NC(=O)[C@H](CC(C)C)NC(=O)[C@H](C)NC(=O)[C@H](C)NC(=O)CNC(=O)[C@H](CCC(=O)O)NC(=O)[C@H](CC(C)C)NC(=O)[C@H](CC(C)C)NC(=O)CNC(=O)[C@H](CO)NC(=O)[C@H](CC(C)C)NC(=O)[C@H](CC(=O)O)NC(=O)[C@H](CO)NC(=O)[C@@H](NC(=O)[C@H](Cc1ccccc1)NC(=O)[C@@H](NC(=O)CNC(=O)[C@H](CCC(=O)O)NC(=O)C(C)(C)NC(=O)[C@@H](N)Cc1c[nH]cn1)[C@@H](C)O)[C@@H](C)O)C(=O)N[C@@H](CCC(N)=O)C(=O)N[C@@H](Cc1c[nH]c2ccccc12)C(=O)N[C@@H](CC(C)C)C(=O)N[C@H](C(N)=O)C(C)C [compound 226] (H-H[Aib]EGTFTSDLSGLLEGAALQRFIQWLV-NH2) |  |  |  | 145 | 0.0316 nM | 5.01 nM |  |  | 
3 | CC[C@H](C)[C@H](NC(=O)[C@H](Cc1ccccc1)NC(=O)[C@H](CCCNC(=N)N)NC(=O)[C@H](CCC(N)=O)NC(=O)[C@H](CC(C)C)NC(=O)[C@H](C)NC(=O)[C@H](C)NC(=O)CNC(=O)[C@H](CCC(=O)O)NC(=O)[C@H](CC(C)C)NC(=O)[C@H](CC(C)C)NC(=O)[C@H](Cc1ccccc1)NC(=O)[C@H](CO)NC(=O)[C@H](CC(C)C)NC(=O)[C@H](CC(=O)O)NC(=O)[C@H](CO)NC(=O)[C@@H](NC(=O)[C@H](Cc1ccccc1)NC(=O)[C@@H](NC(=O)CNC(=O)[C@H](CCC(=O)O)NC(=O)C(C)(C)NC(=O)[C@@H](N)Cc1c[nH]cn1)[C@@H](C)O)[C@@H](C)O)C(=O)N[C@@H](CCC(N)=O)C(=O)N[C@@H](Cc1c[nH]c2ccccc12)C(=O)N[C@@H](CC(C)C)C(=O)N[C@H](C(N)=O)C(C)C [compound 225] (H-H[Aib]EGTFTSDLSFLLEGAALQRFIQWLV-NH2) |  |  |  | 328 | 0.0251 nM | 7.94 nM |  |  | 
4 | CC[C@H](C)[C@H](NC(=O)[C@H](Cc1ccccc1)NC(=O)[C@H](CCCNC(=N)N)NC(=O)[C@H](CCC(N)=O)NC(=O)[C@H](CC(C)C)NC(=O)[C@H](C)NC(=O)[C@H](C)NC(=O)CNC(=O)[C@H](CCC(=O)O)NC(=O)[C@H](CC(C)C)NC(=O)[C@H](CC(C)C)NC(=O)[C@H](CCCNC(=N)N)NC(=O)[C@H](CO)NC(=O)[C@H](CC(C)C)NC(=O)[C@H](CC(=O)O)NC(=O)[C@H](CO)NC(=O)[C@@H](NC(=O)[C@H](Cc1ccccc1)NC(=O)[C@@H](NC(=O)CNC(=O)[C@H](CCC(=O)O)NC(=O)C(C)(C)NC(=O)[C@@H](N)Cc1c[nH]cn1)[C@@H](C)O)[C@@H](C)O)C(=O)N[C@@H](CCC(N)=O)C(=O)N[C@@H](Cc1c[nH]c2ccccc12)C(=O)N[C@@H](CC(C)C)C(=O)N[C@H](C(N)=O)C(C)C [compound 216] (H-H[Aib]EGTFTSDLSRLLEGAALQRFIQWLV-NH2) |  |  |  | 13 | 0.0398 nM | 0.501 nM | 13 | 0.0398 nM | 0.501 nM
5 | CC(C)C[C@H](NC(=O)[C@H](Cc1ccccc1)NC(=O)[C@H](CCCNC(=N)N)NC(=O)[C@H](CCC(N)=O)NC(=O)[C@H](CCC(=O)O)NC(=O)[C@H](C)NC(=O)[C@H](C)NC(=O)CNC(=O)[C@H](CCC(=O)O)NC(=O)[C@H](CCCCNC(=O)COCCOCCNC(=O)COCCOCCNC(=O)CC[C@H](NC(=O)CCCCCCCCCCCCCCCCC(=O)O)C(=O)O)NC(=O)[C@H](CC(C)C)NC(=O)[C@H](CCCNC(=N)N)NC(=O)[C@H](CO)NC(=O)[C@@H](NC(=O)[C@H](CC(=O)O)NC(=O)[C@H](CO)NC(=O)[C@@H](NC(=O)[C@H](Cc1ccccc1)NC(=O)[C@@H](NC(=O)CNC(=O)[C@H](CCC(=O)O)NC(=O)C(C)(C)NC(=O)[C@@H](N)Cc1c[nH]cn1)[C@@H](C)O)[C@@H](C)O)C(C)C)C(=O)N[C@@H](CCC(N)=O)C(=O)N[C@@H](Cc1c[nH]cn1)C(=O)N[C@@H](CC(C)C)C(=O)N[C@H](C(=O)N[C@@H](C)C(=O)N[C@@H](C)C(=O)N[C@@H](CCC(=O)O)C(N)=O)C(C)C [compound 206] (H-H[Aib]EGTFTSDVSRLK([AEEA-AEEA-γGlu-C18 diacid])EGAAEQRFLQHLVAAE-NH2) | 312500 | 0.0158 nM | 5010 nM |  |  |  |  |  | 

Results, then the compound that gave them:

Row | Selectivity (GLP1R; [1]) | EC50 (GLP1R; [2]) | EC50 (SCTR; [1]) | Selectivity (GLP1R; [3]) | EC50 (GLP1R; [4]) | EC50 (SCTR; [3]) | Selectivity (GLP1R; [5]) | EC50 (GLP1R; Table 3, position X^10 variants of GUB06-046, read-out: pEC50 hGLPR1 (converted)) | EC50 (SCTR; [5]) | Compound
6 |  |  |  | 78 | 0.0631 nM | 5.01 nM |  |  |  | CC[C@H](C)[C@H](NC(=O)[C@H](Cc1ccccc1)NC(=O)[C@H](CCCNC(=N)N)NC(=O)[C@H](CCC(N)=O)NC(=O)[C@H](CC(C)C)NC(=O)[C@H](C)NC(=O)[C@H](C)NC(=O)CNC(=O)[C@H](CCC(=O)O)NC(=O)[C@H](CC(C)C)NC(=O)[C@H](CC(C)C)NC(=O)C(C)(C)NC(=O)[C@H](CO)NC(=O)[C@H](CC(C)C)NC(=O)[C@H](CC(=O)O)NC(=O)[C@H](CO)NC(=O)[C@@H](NC(=O)[C@H](Cc1ccccc1)NC(=O)[C@@H](NC(=O)CNC(=O)[C@H](CCC(=O)O)NC(=O)C(C)(C)NC(=O)[C@@H](N)Cc1c[nH]cn1)[C@@H](C)O)[C@@H](C)O)C(=O)N[C@@H](CCC(N)=O)C(=O)N[C@@H](Cc1c[nH]c2ccccc12)C(=O)N[C@@H](CC(C)C)C(=O)N[C@H](C(N)=O)C(C)C [compound 223] (H-H[Aib]EGTFTSDLS[Aib]LLEGAALQRFIQWLV-NH2)
7 |  |  |  | 53 | 0.0158 nM | 0.794 nM |  |  |  | CC[C@H](C)[C@H](NC(=O)[C@H](Cc1ccccc1)NC(=O)[C@H](CCCNC(=N)N)NC(=O)[C@H](CCC(N)=O)NC(=O)[C@H](CC(C)C)NC(=O)[C@H](C)NC(=O)[C@H](C)NC(=O)CNC(=O)[C@H](CCC(=O)O)NC(=O)[C@H](CC(C)C)NC(=O)[C@H](CC(C)C)NC(=O)[C@H](Cc1c[nH]c2ccccc12)NC(=O)[C@H](CO)NC(=O)[C@H](CC(C)C)NC(=O)[C@H](CC(=O)O)NC(=O)[C@H](CO)NC(=O)[C@@H](NC(=O)[C@H](Cc1ccccc1)NC(=O)[C@@H](NC(=O)CNC(=O)[C@H](CCC(=O)O)NC(=O)C(C)(C)NC(=O)[C@@H](N)Cc1c[nH]cn1)[C@@H](C)O)[C@@H](C)O)C(=O)N[C@@H](CCC(N)=O)C(=O)N[C@@H](Cc1c[nH]c2ccccc12)C(=O)N[C@@H](CC(C)C)C(=O)N[C@H](C(N)=O)C(C)C [compound 228] (H-H[Aib]EGTFTSDLSWLLEGAALQRFIQWLV-NH2)
